Measured values from patent publication US20230026232A1, “AHR INHIBITORS AND USES THEREOF” (Ikena Oncology, Inc., priority 2019, published 2023).

How the values were obtained:
[1] = Phase 1 dose-escalation study: interim cohort pharmacokinetics; assay type: in vivo, human; settings: for dose proportionality of PK: Cycle 2 Day 1 (C2D1)
Description: Serial blood samples are obtained to characterize the plasma PK of Compound A and its major active metabolites. The initial sampling strategy is based on the predicted human PK of this compound. If in the course of evaluating the PK, it is determined that an alternative sampling scheme would be more informative, then that alternative sampling scheme may be implemented if the total amount of blood and blood draws obtained for PK is not increased. Moreover, the total number of samples may be decreased at any time if the initial sampling scheme is considered unnecessarily intensive.
Interim cohort pharmacokinetics were assessed on parent (Compound A) and two active metabolites (Compound B and Compound C). […] Compound B metabolite ratio is increased on C2D1 in cohorts above 200 mg dosages. […] Without wishing to be bound or limited by theory, elimination rate limited kinetics likely contributing to the accumulation of Compound B through on-target inhibition of CYP1A1.

[2] = target: T1, AHR (Homo sapiens, UniProt P35869); experiment: HepG2 DRE-Luc reporter assay, VAF347-stimulated luciferase expression; assay type: cell-based; design: endogenous in cells; host or cells: HepG2 DRE-Luc reporter cell line; settings: 80 nM VAF347, n=2
T1 sequence (P35869 11-848): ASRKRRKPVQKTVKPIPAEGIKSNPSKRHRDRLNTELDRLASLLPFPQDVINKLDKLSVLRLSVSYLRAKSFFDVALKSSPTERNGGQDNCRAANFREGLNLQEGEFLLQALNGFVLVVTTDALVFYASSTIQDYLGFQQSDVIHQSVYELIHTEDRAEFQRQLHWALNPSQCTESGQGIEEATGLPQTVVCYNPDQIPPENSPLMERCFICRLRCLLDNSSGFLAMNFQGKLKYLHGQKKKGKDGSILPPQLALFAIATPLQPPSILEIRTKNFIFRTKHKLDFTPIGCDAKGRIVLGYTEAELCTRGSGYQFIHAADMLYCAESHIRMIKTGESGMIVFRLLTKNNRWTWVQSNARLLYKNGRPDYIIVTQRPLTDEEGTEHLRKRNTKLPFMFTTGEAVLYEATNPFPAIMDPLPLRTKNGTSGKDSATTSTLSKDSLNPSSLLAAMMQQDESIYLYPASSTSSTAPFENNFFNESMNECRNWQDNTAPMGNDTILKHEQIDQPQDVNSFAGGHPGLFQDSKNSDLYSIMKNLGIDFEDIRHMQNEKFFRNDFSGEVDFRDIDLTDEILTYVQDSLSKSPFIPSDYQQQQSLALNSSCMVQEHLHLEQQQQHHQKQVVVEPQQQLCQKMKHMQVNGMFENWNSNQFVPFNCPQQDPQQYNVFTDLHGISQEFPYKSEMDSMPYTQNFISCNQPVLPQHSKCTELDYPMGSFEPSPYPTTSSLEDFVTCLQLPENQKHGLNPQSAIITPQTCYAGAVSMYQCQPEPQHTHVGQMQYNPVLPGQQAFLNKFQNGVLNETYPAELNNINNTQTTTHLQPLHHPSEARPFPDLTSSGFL
Description: In vitro experiments were conducted to examine the inhibitory activity of Compound A for AHR-mediated transcriptional activation in the HepG2 DRE-Luc reporter cell line. This human hepatoma cell line stably expresses a luciferase reporter gene under control of AHR-responsive DRE enhancer elements (Han, 2004). HepG2 DRE-Luc reporter cells were treated with 80 nM VAF347 to activate AHR.
The inhibitory activity of the human Compound A metabolites, Compound B and Compound C was also determined in the HepG2 DRE-Luc cell line. Reporter cells were stimulated with 80 nM VAF347 and each metabolite at multiple concentrations.

Q: Which “ratio to Compound A on C2D1” value ([1]; 400 mg and 800 mg dose) does the source give for `CC(C)(O)c1cnn2c(N[C@@H]3CCc4[nH]c5ccccc5c4C3)nc(-c3cncc(F)c3)nc12` [Compound B] here?
A: The value was 1.3-1.4 × parent.

Q: And the “dose proportionality of PK” value [1]?
A: The value was “greater than dose proportional”.

Q: What about the “accumulation with repeat dosing” value ([1]; repeat dosing above 200 mg) of the same compound?
A: Its value is “Accumulation of Compound B observed”.

Q: What about the “AUC compared with Compound A” value ([1]; repeated dosing, 2/3 subjects at 400 and 800 mg) of the same compound?
A: Its value is “greater than Compound A”.

Q: What about the IC50 [2] of the same compound?
A: The IC50 was 23 nM.

Q: With `C=C(C)c1cnn2c(N[C@@H]3CCc4[nH]c5ccccc5c4C3)nc(-c3cncc(F)c3)nc12` [Compound C] as the compound, how does the “ratio to Compound A (AUC)” value ([1]; 400 mg and 800 mg dose) read?
A: The value was 15-20 % of parent.

Q: What about the “dose proportionality of PK” value [1] of the same compound?
A: The value was “greater than dose proportional”.

Q: And the IC50 [2]?
A: The IC50 was 213 nM.
